No end group written: not given here.
Legend:
[1] = Peptide solubility by turbidity of peptide suspensions at 550 nm; conditions: for Solubility (/5): Experiment #2, score 1 to 5; for Solubility: Experiment #1, score 1 to 5, turbidity at 550 nm
Experimental: The solubility of the peptides was determined by measuring the turbidity of each of the peptide suspensions at 550 nm. The numbers 1 to 5 were used denote the degree of solubility, where 1 means poor solubility and 5 means high solubility.

[2] = target: T1, photosynthetic bacterial reaction center (BRC) (Cereibacter sphaeroides, UniProt P0C0Y7+P0C0Y8+P0C0Y9); test: Thermostability of the BRC complex (absorbance at 803 nm after incubation at 65° C.); format: physicochemical, Rhodobacter sphaeroides; conditions: 0.03% LDAO
T1 construct: placed on H from own knowledge of pIND4-RC1; made in house; host or cells: Rhodobacter sphaeroides RcX (ΔpuhA, ΔpufQBALMX, ΔrshI, ΔppsR), plasmid pIND4-RC1
Experimental: Reconstitution of the BRC in peptidiscs, low lipid nanodiscs, and styrene maleic acid nanoparticles: The purified BRC complex (1 mg/mL) was mixed at a 1:1.8 (μg/μg) ratio with NSPr followed by 10-fold dilution in Buffer A to decrease the LDAO concentration to 0.003%. For formation of low-lipid nanodiscs, the purified BRC complex was instead mixed at a 1:2 (mol/mol) ratio with MSP1D1 before dilution. Alternatively, an equivalent amount of BRC was diluted in Buffer A supplemented with 0.03% LDAO, 0.02% DDM, 0.1% SMA or 0.1% SDS as described. After incubation for 10 minutes on ice, aggregated proteins were removed by centrifugation (13,000×g, 10 min at 4° C.). […]
Absorbance spectroscopy: Absorption spectra were recorded using a Hitachi U-3010 spectrophotometer. A blank measurement was recorded in Buffer A(+0.03% LDAO for detergent purified BRC). Samples were incubated in a PCR thermocycler at the indicated temperature, and then measured at the desired time points in a quartz cuvette at room temperature. […]
The photosynthetic bacterial reaction center (BRC) from Rhodobacter sphaeroides was reconstituted into peptidiscs using NSPr. FIG. 21A illustrates the absorbance scans of the BRC (1 μM) in detergent solution (0.03% LDAO (lauryldimethylamine oxide)) and in peptidisc. Scans were normalized to the value measured at 803 nm (the absorbance peak of the accessory bacteriochlorophylls). […]

[3] = tested on: membrane proteins MsbA and FhuA; test: On-gel reconstitution efficiency of membrane proteins; format: biochemical, E. coli; parameters: key: 1 means poor reconstitution; 5 means efficient reconstitution
Experimental: Bands were visualized by Coomassie Blue G250 staining.
(§1) Table 10 summarizes the biophysical, structural and experimental characteristics of the tested NSP peptide variants. […] The number of inter-helix salt bridges formed between the AH1 and AH2 regions for each of the tested amphipathic peptide variants was also determined.

[4] = tested on: membrane proteins; test: Competition with equimolar NSPr-FAM during on-gel reconstitution of membrane proteins; format: biochemical; conditions: 0 no competition, 100 full competition
Experimental: as §1

[5] = Experiment #1, score 1 to 5, on-gel, MsbA and FhuA

Molecule | Solubility (/5) [1] | other results
CC(C)C[C@H](NC(=O)[C@H](CCCCN)NC(=O)[C@H](C)NC(=O)[C@H](Cc1ccccc1)NC(=O)[C@H](Cc1ccc(O)cc1)NC(=O)[C@H](CC(=O)O)NC(=O)[C@H](CCCCN)NC(=O)[C@@H](NC(=O)[C@H](C)NC(=O)[C@H](CCC(=O)O)NC(=O)[C@H](CCCCN)NC(=O)[C@H](CC(C)C)NC(=O)[C@H](CCCCN)NC(=O)[C@H](CCC(=O)O)NC(=O)[C@H](C)NC(=O)[C@H](C)NC(=O)[C@@H]1CCCN1C(=O)[C@H](CC(=O)O)NC(=O)[C@H](Cc1c[nH]c2ccccc12)NC(=O)[C@H](Cc1ccccc1)NC(=O)[C@H](CCCCN)NC(=O)[C@H](C)NC(=O)[C@H](Cc1ccccc1)NC(=O)[C@H](Cc1ccc(O)cc1)NC(=O)[C@H](CC(=O)O)NC(=O)[C@H](CCCCN)NC(=O)[C@@H](NC(=O)[C@H](C)NC(=O)[C@H](CCC(=O)O)NC(=O)[C@H](CCCCN)NC(=O)[C@H](Cc1ccccc1)NC(=O)[C@H](CCCCN)NC(=O)[C@H](CCC(=O)O)NC(=O)[C@H](C)NC(=O)[C@H](Cc1ccccc1)NC(=O)[C@H](Cc1c[nH]cn1)NC(=O)[C@H](Cc1c[nH]cn1)NC(=O)[C@H](Cc1c[nH]cn1)NC(=O)[C@H](Cc1c[nH]cn1)NC(=O)[C@H](Cc1c[nH]cn1)NC(=O)[C@@H](N)Cc1c[nH]cn1)C(C)C)C(C)C)C(=O)N[C@@H](Cc1c[nH]c2ccccc12)C(=O)N[C@@H](CC(=O)O)C(=O)O [NSPr-6xHis, HHHHHH FAEKFKEAVKDYFAKFWD P AAEKLKEAVKDYFAKLWD] | 3 /5 | 
YAEKFKEAVKDYFAKFYDPAAEKLKEAVKDYFAKLWD [Phe/Tyr Switch, YAEKFKEAVKDYFAKFYD P AAEKLKEAVKDYFAKLWD] | 4 /5 | 
FAEKFKEAVKDYFAKLWDPAAEKLKEAVKDYFAKLWD [Peptide 3F-1F, FAEKFKEAVKDYFAKLWD P AAEKLKEAVKDYFAKLWD] | 5 | 
FAAKFKEAVKDYFAKFWDPAAEKLAEAVADYFAALWD [3 SB Disruption H2, FAAKFKEAVKDYFAKFWD P AAEKLAEAVADYFAALWD] | 5 | 
FAEKFKEAVKDYFAKFWDGAAEKLKEAVKDYFAKLWD [Pro/Gly Switch, FAEKFKEAVKDYFAKFWD G AAEKLKEAVKDYFAKLWD] | 4 /5 | 
CCCCCCCCCCCC[N+](C)(C)[O-] [LDAO, lauryldimethylamine oxide] |  | Time to full denaturation of BRC [2]: less than 4 minutes
Fam-FAEKFKEAVKDYFAKFWD P AAEKLKEAVKDYFAKLWD [NSPr-FAM] |  | Reconstitution Efficiency (/5) [3, 5]: 5; Reconstitution Efficiency (/5) ([3]; Experiment #2, score 1 to 5): 5
FAEKFKEAVKDQFAKFWDPAAEKLKEAVKDQFAKLWD [Tyr/Gln Switch, FAEKFKEAVKDQFAKFWD P AAEKLKEAVKDQFAKLWD] | 4 /5 | 
FAEKFKEAVKPYFAKFWDPAAEKLKEAVKPYFAKLWD [NSPr-3P, FAEKFKEAVKPYFAKFWD P AAEKLKEAVKPYFAKLWD] | 5 | Solubility [1]: 5
FAEAFKEAVKDYFAAFWDPAAEKLKEAVKDYFAKLWD [2 SB Disruption, FAEAFKEAVKDYFAAFWD P AAEKLKEAVKDYFAKLWD] | 5 | 
FAERFREAVRDYFARFWDPAAERLREAVRDYFARLWD [Pos Switch, FAERFREAVRDYFARFWD P AAERLREAVRDYFARLWD] | 5 | 
DWLKAFYDKVAEKLKEAAPDWFKAFYDKVAEKFKEAF [NSP, DWLKAFYDKVAEKLKEAA P DWFKAFYDKVAEKFKEAF] | 3 /5 | 
WAEKFKEAVKDYWAKFWDPAAEKLKEAVKDYWAKLWD [Phe/Trp Switch, WAEKFKEAVKDYWAKFWD P AAEKLKEAVKDYWAKLWD] | 4 /5 | 
FADKFKDAVKEYFAKFWEPAADKLKDAVKEYFAKLWE [Neg Switch, FADKFKDAVKEYFAKFWE P AADKLKDAVKEYFAKLWE] | 4 /5 | 
FAEAFKEAVKDYFAKFWDPAAEKLKEAVKDYFAKLWD [1 SB Disruption, FAEAFKEAVKDYFAKFWD P AAEKLKEAVKDYFAKLWD] | 5 | 
FAEKFKEAVKDYFAKFWDGAAEKLKEAVKDYFAKLWD [NSPr-G, FAEKFKEAVKDYFAKFWD G AAEKLKEAVKDYFAKLWD] |  | Solubility [1]: 5
Ac-DWLKAFYDKVAEKLKEAAPDWFKAFYDKVAEKFKEAF-NH2 [Ac-NSP-NH2, Ac-DWLKAFYDKVAEKLKEAA P DWFKAFYDKVAEKFKEAF-NH2] | 1 | Reconstitution Efficiency (/5) [3, 5]: 2 /5; Reconstitution Efficiency (/5) ([3]; Experiment #2, score 1 to 5): 2 /5; Competition peptide (% NSPr-FAM) ([4]; Experiment #1, equimolar NSPr-FAM and variant): 10%; Competition NSPr-FAM (±10%) ([4]; Experiment #2): 10%; Solubility [1]: 1
FVEKFKEVAKDYFVKFWDPVVEKLKEVAKDYFVKLWD [Ala/Val Switch, FVEKFKEVAKDYFVKFWD P VVEKLKEVAKDYFVKLWD] | 5 | 
FAEKFKEAVKDYFAKFWDPFAEKFKEAVKDYFAKFWD [Peptide 4F-4F, FAEKFKEAVKDYFAKFWD P FAEKFKEAVKDYFAKFWD] | 4 /5 | 
CC(C)C[C@H](NC(=O)[C@H](CCCCN)NC(=O)[C@H](C)NC(=O)[C@H](Cc1ccccc1)NC(=O)[C@H](Cc1ccc(O)cc1)NC(=O)[C@H](CC(=O)O)NC(=O)[C@H](CCCCN)NC(=O)[C@@H](NC(=O)[C@H](C)NC(=O)[C@H](CCC(=O)O)NC(=O)[C@H](CCCCN)NC(=O)[C@H](CC(C)C)NC(=O)[C@H](CCCCN)NC(=O)[C@H](CCC(=O)O)NC(=O)[C@H](C)NC(=O)[C@H](C)NC(=O)[C@@H]1CCCN1C(=O)[C@H](CC(=O)O)NC(=O)[C@H](Cc1c[nH]c2ccccc12)NC(=O)[C@H](Cc1ccccc1)NC(=O)[C@H](CCCCN)NC(=O)[C@H](C)NC(=O)[C@H](Cc1ccccc1)NC(=O)[C@H](Cc1ccc(O)cc1)NC(=O)[C@H](CC(=O)O)NC(=O)[C@H](CCCCN)NC(=O)[C@@H](NC(=O)[C@H](C)NC(=O)[C@H](CCC(=O)O)NC(=O)[C@H](CCCCN)NC(=O)[C@H](Cc1ccccc1)NC(=O)[C@H](CCCCN)NC(=O)[C@H](CCC(=O)O)NC(=O)[C@H](C)NC(=O)[C@H](Cc1ccccc1)NC(=O)[C@@H](N)CS)C(C)C)C(C)C)C(=O)N[C@@H](Cc1c[nH]c2ccccc12)C(=O)N[C@@H](CC(=O)O)C(=O)O [NSPr-C, C FAEKFKEAVKDYFAKFWD P AAEKLKEAVKDYFAKLWD] | 5 | Solubility [1]: 5
FAEKFKEAVKDYFAKFWD P AAEKLKEAVKDYFAKLWD-pyrenebutyric acid [NSPr-pyrene] | 5 | Reconstitution Efficiency (/5) [3, 5]: 4 /5; Reconstitution Efficiency (/5) ([3]; Experiment #2, score 1 to 5): 4 /5; Solubility [1]: 5
FAEKFKEAVKDYFAKFWDPAAEKLKEAVKDYFAKLW [NSPr-36, FAEKFKEAVKDYFAKFWD P AAEKLKEAVKDYFAKLW] | 3 /5 | 
FAEKLKEAVKDYLAKFWDPAAEKLKEAVKDYFAKLWD [Peptide 2F-1F, FAEKLKEAVKDYLAKFWD P AAEKLKEAVKDYFAKLWD] | 5 | 
FAEKFKEAVKDYFAKFWDPAAEKLKEAVKDYFAKFWD [Peptide 4F-2F, FAEKFKEAVKDYFAKFWD P AAEKLKEAVKDYFAKFWD] | 4 /5 | 
FAEKFKEAVKDYFAKFWDPAAEKFKEAVKDYFAKLFD [Peptide 4F-3F, FAEKFKEAVKDYFAKFWD P AAEKFKEAVKDYFAKLFD] | 4 /5 | 
FAEKLKEAVKDYFAKLWDPFAEKLKEAVKDYFAKLWD [Peptide 2F-2F, FAEKLKEAVKDYFAKLWD P FAEKLKEAVKDYFAKLWD] | 4 /5 | 

Reference: patent publication US20210253643A1, “HYDROPHOBIC BIOMOLECULE STABILIZING SCAFFOLD PEPTIDES AND METHODS OF MAKING AND USING SAME” (The University of British Columbia, priority 2018, published 2021)
